Experimental data taken from US7572923B2, “Indirubin derivatives having anticancer property against human cancer cell line” (Anygen Co., Ltd., priority 2004, dated 2009).

Columns and labels:
RK3E-Ras cells [1] = assay: Cell viability by MTT assay; assay type: cell-based, rat; conditions: 1, 10, 20, 40 μM, 6, 12, 24, 48 hours
Method: To measure the influence to cell viability by indirubin derivative, RK3E-Ras cell, 1×10^5/well is seeding on 24 well plate. After incubation of cells for 12˜24 hours, indirubin derivative 011 in various concentration (1 μM, 10 μM, 20 μM, 40 μM) are treated for 6, 12, 24, 48 hours respectively. As control, cells without treating any compound are employed. […] FIG. 1 show the decline of cell viability after treatment of indirubin derivative 011.
According to the same condition in Example 3, other indirubin derivative 012, 030 are treated to measure the influence to cell viability.

RK3E-ras solid tumor [2] = assay: Histological appearance of tumor lesion, H&E stain; assay type: in vivo, Sprague Dawley rat; conditions: rat tumor tissue
Method: (§1) 1×10^7 of RK3E-ras cells is injected to Sprague Dawley rat to induce solid tumor for 5 days and experimental groups of animals are employed by size and volume of tumor in these animals. 100 mM of indirubin derivative is injected to experimental group of animals 5 times in every other day.
To observe histological appearance of tumor lesion after indirubin derivatives 011, 012 and 030 treatment, tumor tissue is immobilized in para-formaldehyde solution and is treated with paraffin. Then, H&E stain is carried out. […] From this experiment, indirubin derivatives of the present invention induce apoptosis of tumor, which results in the suppression of tumor formation in tissue level. FIG. 8 is photography showing the appearance of tumor lesion after treating indirubin derivatives 011, 012 and 030 of present invention.

RK3E-ras solid tumor [3] = assay: Tumor suppression in RK3E-ras tumor induced rats; assay type: in vivo; conditions: Sprague Dawley rat; for size and volume of tumor: 100 mM injected 5 times in every other day
Method: RK3E cell is one of rat kidney cell and it is immortalized by EA1 oncogene. […] Inventors prepares stable RK3E-k-ras cell line by infection of retroviral expression vector to express mutant k-ras of oncogene. Prepared cell line is intramuscularly infected to Sprague Dawley rat to induce tumor. […] Tumor suppression effect by indirubin derivatives 011, 012 and 030 is measured through tumor induced rats.
as §1
Tumor is measured by vernier caliper and the volume of tumor is calculated by Carlsso calculation method {V=1/2(a.b^2), a: long axis, b: short axis}.

RK3E-Ras cells [4] = assay: Annexin-V-FLUOS/propidium iodide double staining assay for apoptosis; assay type: cell-based, rat; conditions: 1 μM, 24 hours
Method: Annexin-V-FLUOS/propidium iodide double staining assay is a sensitive method for measuring apoptosis in cell level by detecting exposed phosphatidyl serine in apoptotic cell membrane.
RK3E-Ras cell is seeding in 6×10^5 level on cover side. Indirubin derivatives 011, 012 and 030 are treated in 1 μM concentration for 24 hours. As a control, cells without treating any compound are employed. After 24 hours, cells are annexin-V-FLUOS/propidium iodide double stained using annexin-V-FLUOS staining kit. […] It is confirmed that apoptosis of cells treated with indirubin derivatives 011, 012 and 030 is processed.

[5] = test system: human colon cancer cell line (Col2); assay: Inhibition of cancer cell line proliferation, Col2; assay type: cell-based; conditions: 96 h, 3˜4 days incubation, absorbance at 515 nm
Method: (§2) For measuring the proliferation inhibition by indirubin compound, the method disclosed in K. Likhitwitayawuid et al. Journal. Nat. Prod. […] Followings are simple description of this method. The cancer cell line is diluted into 5×10^4 cfu/ml. Then, various concentrations of test compounds are added to 96 well microtiter plate containing diluted cell line. After incubating test plate for 3˜4 days at 37° C., the test plate is dried and Tris-base is added. Then, using ELISA plate detector, the absorbance at 515 nm is measured. IC50 is measured by non-linear regression method.

[6] = test system: leukemia cell line (HL-60); assay: Differentiation inducing effect, NBT reduction method; assay type: cell-based, human; conditions: 3 days
Method: For measuring the differentiation inducing effect to acute bone merrow leukemia cell line (HL-60) by indirubin AGM compound, NBT (nitroblue tetrazolium) reduction reaction method is employed. The leukemia cell line is diluted into 2×10^5 cfu/ml. […] Incubated cells are washed with phosphate buffered saline (PBS). Then, they are further incubated in PBS solution containing 0.1% NBT and 200 ng/ml of PMA (phorbol 12-myristate 13-acetate) for 30 minutes at 37° C. Incubated cells are centrifuged and collected cells are washed with PBS solution. Using cell number counter, differentiated cells forming nitroblue formazan among total cells are counted.

human cancer cell line = assay: Inhibition of cancer cell line proliferation, overall conclusion; assay type: cell-based; conditions: conclusion from Table 2
Method: as §2

RK3E-Ras cells [7] = assay: DNA fragmentation, agarose gel electrophoresis; assay type: cell-based, rat; conditions: 10 μM
Method: We test if the decline of cell viability by indirubin derivative 011 relates to apoptosis of cell or not. Genomic DNA from cells treated with indirubin derivative 011 is isolated and fragmented. RK3E-Ras cell, 6×10^5/well is seeding on 6 well plate. After incubation of cells for 12˜24 hours, 10 μM of indirubin derivative 011 is treated with cells. As a control, cells without treating any compound or cells treating DMSO in same concentration are employed.

[8] = test system: human lung cancer cell line (A549); assay: Inhibition of cancer cell line proliferation, A549; assay type: cell-based; conditions: 96 h, 3˜4 days incubation, absorbance at 515 nm
Method: as §2

[9] = test system: human abdominal cavity cancer cell line (HT 1080); assay: Inhibition of cancer cell line proliferation, HT 1080; assay type: cell-based; conditions: HT-1080, 96 h, HT108, 3˜4 days incubation, absorbance at 515 nm
Method: as §2

[10] = test system: human leukemia cell line (HL-60); assay: Inhibition of cancer cell line proliferation, HL-60; assay type: cell-based; conditions: HL-60, 96 h, HL60, 3˜4 days incubation, absorbance at 515 nm
Method: as §2

[11] = test system: human stomach cancer cell line (SNU-638); assay: Inhibition of cancer cell line proliferation, SNU-638; assay type: cell-based; conditions: 96 h, 3˜4 days incubation, absorbance at 515 nm
Method: as §2

[12] = test system: human leukemia cell line (HL-60); assay: Differentiation with low concentration 1,25-(OH)2D3 or ATRA, NBT reduction method; assay type: cell-based
Method: For measuring the differentiation inducing effect to acute bone merrow leukemia cell line (HL-60) by indirubin AGM compound, NBT (nitroblue tetrazolium) reduction reaction method is employed. The leukemia cell line is diluted into 2×10^5 cfu/ml. After treating 20 μM and 1 μM concentrations of test compounds, test plate is incubated for 3 days at 37° C. in 5% CO2 incubator. Incubated cells are washed with phosphate buffered saline (PBS). Then, they are further incubated in PBS solution containing 0.1% NBT and 200 ng/ml of PMA (phorbol 12-myristate 13-acetate) for 30 minutes at 37° C. Incubated cells are centrifuged and collected cells are washed with PBS solution. Using cell number counter, differentiated cells forming nitroblue formazan among total cells are counted.
Next, we test if AGM compound of present invention can synergically induce the differentiation of acute bone merrow leukemia cell line when it is treated with low concentration of 1,25-dihydroxyvitamin D3[1,25-(OH)2D3] or all-trans retinoic acid (ATRA) known as differentiation inducing agent. […] […] As a positive control, conventional differentiation inducing agent is used.

[13] = test system: human cell line (HT 1080); assay: Inhibition of cancer cell line proliferation, HT 1080; assay type: cell-based; conditions: HT-1080, 96 h, read-out: IC50 HT108
Method: as §2

| Compound | cell viability according to increase of compound concentration (RK3E-Ras cells [1]) | histological appearance of tumor lesion (RK3E-ras solid tumor [2]) | size and volume of tumor (RK3E-ras solid tumor [3]) | annexin-V green fluorescence staining versus control (RK3E-Ras cells [4]) | IC50 [5] | inhibitor against proliferation of human cancer cell line (human cancer cell line) | IC50 [8] | IC50 [10] | IC50 [11] | other results |
| --- | --- | --- | --- | --- | --- | --- | --- | --- | --- | --- |
| CC(C)(C)C(=O)Nc1ccc2c(c1)C(=C1Nc3ccccc3C1=NO)C(=O)N2 [AGM030, 5-NH-trimethylacetyl-indirubin-3-oxime] | rapid decline of cell viability | necrosis or calcification of tumor is observed | decrease | far more stained by green fluorescence than cells of control group |  |  |  |  |  |  |
| O=C1Nc2ccc([N+](=O)[O-])cc2C1=C1Nc2ccccc2C1=NO [AGM011, 5′-nitro-1H,1′H-[2,3′] biindolylidene-3,2′-dione 3-oxime] | rapidly declined | necrosis or calcification of tumor is observed | decrease | far more stained by green fluorescence than cells of control group | 25.5 µM | effective inhibitor | 5.43 µM | 9.23 µM | 1.21 µM | % of Differentiation ([6]; 0.2 μM compound): 24.02 ± 0.85%; DNA fragmentation (RK3E-Ras cells [7]; 12 hours): some DNA fragmentation occurs; DNA fragmentation (RK3E-Ras cells [7]; 24 hours): clear DNA fragmentation is detected; suppression against tumor (tumor volume) (RK3E-ras solid tumor [3]; tumor volume by vernier caliper, V=1/2(a.b^2)): 80%; IC50 [9]: 5.87 µM; progress of apoptosis (RK3E-Ras cells [4]; FIG. 4): fast processed; % of Differentiation, 1,25-(OH)2D3 ([12]; 0.2 μM compound with 5 nM of 1,25-(OH)2D3): 31.79 ± 0.87%; % of Differentiation, all-trans RA ([12]; 0.2 μM compound with 50 nM of ATRA): 34.87 ± 0.74% |
| O=C1Nc2ccc(F)cc2C1=C1Nc2ccccc2C1=NO [AGM012, 5′-fluoro-1H,1′H-[2,3′] biindolylidene-3,2′-dione 3-oxime] | rapid decline of cell viability | necrosis or calcification of tumor is observed | decrease | far more stained by green fluorescence than cells of control group | 64.2 µM | effective inhibitor | 13.2 µM | 89.3 µM | 2.06 µM | % of Differentiation ([6]; 1 μM compound): 32.71 ± 1.73%; IC50 [13]: 3.41 µM; % of Differentiation, 1,25-(OH)2D3 ([12]; 1 μM compound with 5 nM of 1,25-(OH)2D3): 24.29 ± 1.34%; % of Differentiation, all-trans RA ([12]; 1 μM compound with 50 nM of ATRA): 54.81 ± 1.65% |
